tested on: Beet Armyworm (Spodoptera exigua, LAPHEG) second instar larva; experiment: Bioassay on beet armyworm (BAW), 128-well diet tray assay; format: in vivo; conditions: 50 μg/cm^2 on artificial diet, 25° C., five days
Description: Example A: Bioassays on Beet Armyworm (Spodoptera exigua, LAPHEG) (“BAW”) and Cabbage Looper (Trichoplusia ni, TRIPNI) (“CL”)
Bioassays on BAW were conducted using a 128-well diet tray assay. One second instar BAW larva was placed in each well (8 wells total) of the diet tray that had been previously filled with 1 mL of artificial diet to which 50 μg/cm^2 of the test molecule (dissolved in 50 μL of 90:10 acetone-water mixture) had been applied (to each of eight wells) and then allowed to dry. Trays were covered with a clear self-adhesive cover, vented to allow gas exchange, and held at 25° C., 14:10 light-dark for five days. Percent mortality was recorded for the larvae in each well; activity in the eight wells was then averaged.

Row | Structure (SMILES) | activity against BAW (percent mortality, averaged over eight wells)
1 | COCC(=O)Nc1cccc(NC(=O)[C@H]2[C@H](c3cc(Cl)cc(Cl)c3)C2(Cl)Cl)c1 (racemic) [F4, trans-rac-2,2-Dichloro-3-(3,5-dichlorophenyl)-N-(3-(2-methoxyacetamido)phenyl)cyclopropane-1-carboxamide] | exhibited activity
2 | CN(C(=O)c1cc(F)cc(F)c1)c1cc(NC(=O)[C@H]2[C@H](c3cc(Cl)cc(Cl)c3)C2(Cl)Cl)ccc1Cl (racemic) [F94, trans-rac-N-(2-Chloro-5-(2,2-dichloro-3-(3,5-dichlorophenyl)cyclopropane-1-carboxamido)phenyl)-3,5-difluoro-N-methylbenzamide] | exhibited activity
3 | O=C(COCC(F)(F)F)Nc1ccc(C(=O)Nc2cc(NC(=O)[C@H]3[C@H](c4ccc(F)c(C(F)(F)F)c4)C3(Cl)Cl)ccc2Cl)c(F)c1 (racemic) [F119, trans-rac-N-(2-Chloro-5-(2,2-dichloro-3-(4-fluoro-3-(trifluoromethyl)phenyl)cyclopropane-1-carboxamido)phenyl)-2-fluoro-4-(2-(2,2,2-trifluoroethoxy)acetamido)benzamide] | exhibited activity
4 | O=C(CCC(F)(F)F)Nc1ccc(C(=O)Nc2cc(NC(=O)[C@H]3[C@H](c4ccc(F)c(C(F)(F)F)c4)C3(Cl)Cl)ccc2Cl)c(F)c1 (racemic) [F120, trans-rac-N-(2-Chloro-5-(2,2-dichloro-3-(4-fluoro-3-(trifluoromethyl)phenyl)cyclopropane-1-carboxamido)phenyl)-2-fluoro-4-(4,4,4-trifluorobutanamido)benzamide] | exhibited activity
5 | O=C(CSC(F)(F)F)Nc1ccc(C(=O)Nc2cc(NC(=O)[C@H]3[C@H](c4ccc(F)c(C(F)(F)F)c4)C3(Cl)Cl)ccc2Cl)c(F)c1 (racemic) [F121, trans-rac-N-(2-Chloro-5-(2,2-dichloro-3-(4-fluoro-3-(trifluoromethyl)phenyl)cyclopropane-1-carboxamido)phenyl)-2-fluoro-4-(2-((trifluoromethyl)thio)acetamido)benzamide] | exhibited activity
6 | CCOC(C)C(=O)Nc1c(F)ccc(NC(=O)[C@H]2[C@H](c3cc(Cl)c(Cl)c(Cl)c3)C2(Cl)Cl)c1F (stereo partly drawn) [F12, (1R,3R)-2,2-Dichloro-N-(3-(2-ethoxypropanamido)-2,4-difluorophenyl)-3-(3,4,5-trichlorophenyl)cyclopropane-1-carboxamide] | exhibited activity
7 | O=C(Nc1ccc(F)c(NC(=O)C(F)(F)C(F)(F)C(F)(F)F)c1F)[C@H]1[C@H](c2cc(Cl)c(Cl)c(Cl)c2)C1(Cl)Cl [F13, (1R,3R)-2,2-Dichloro-N-(2,4-difluoro-3-(2,2,3,3,4,4,4-heptafluorobutanamido)phenyl)-3-(3,4,5-trichlorophenyl)cyclopropane-1-carboxamide] | exhibited activity
8 | Cc1cc(C#N)ccc1C(=O)Nc1cc(NC(=O)[C@H]2[C@H](c3ccc(F)c(C(F)(F)F)c3)C2(Cl)Cl)ccc1Cl [F97, N-(2-Chloro-5-((1R,3R)-2,2-dichloro-3-(4-fluoro-3-(trifluoromethyl)phenyl)cyclopropane-1-carboxamido)phenyl)-4-cyano-2-methylbenzamide] | exhibited activity
9 | Cc1cc(C#N)ccc1C(=O)Nc1cc(NC(=O)[C@H]2[C@H](c3ccc(F)c(Br)c3)C2(Cl)Cl)ccc1Cl [F98, N-(5-((1R,3R)-3-(3-Bromo-4-fluorophenyl)-2,2-dichlorocyclopropane-1-carboxamido)-2-chlorophenyl)-4-cyano-2-methylbenzamide] | exhibited activity
10 | Cc1cc(C#N)ccc1C(=O)Nc1cc(NC(=O)[C@H]2[C@H](c3ccc(Cl)c(Cl)c3)C2(Cl)Cl)ccc1Cl [F99, N-(2-Chloro-5-((1R,3R)-2,2-dichloro-3-(3,4-dichlorophenyl)cyclopropane-1-carboxamido)phenyl)-4-cyano-2-methylbenzamide] | exhibited activity
11 | CC(CC(=O)Nc1cc(NC(=O)[C@H]2[C@H](c3ccc(F)c(C(F)(F)F)c3)C2(Cl)Cl)ccc1Cl)C(F)(F)F (stereo partly drawn) [F102, (1R,3R)-2,2-Dichloro-N-(4-chloro-3-(4,4,4-trifluoro-3-methylbutanamido)phenyl)-3-(4-fluoro-3-(trifluoromethyl)phenyl)cyclopropane-1-carboxamide] | exhibited activity
12 | Nc1c(F)ccc(C(=O)Nc2cc(NC(=O)[C@H]3[C@H](c4ccc(F)c(C(F)(F)F)c4)C3(Cl)Cl)ccc2Cl)c1F [F103, 3-amino-N-(2-chloro-5-((1R,3R)-2,2-dichloro-3-(4-fluoro-3-(trifluoromethyl)phenyl)cyclopropane-1-carboxamido)phenyl)-2,4-difluorobenzamide] | exhibited activity
13 | O=C(Nc1cc(NC(=O)[C@H]2[C@H](c3ccc(F)c(C(F)(F)F)c3)C2(Cl)Cl)ccc1Cl)c1ccc(F)c(NC(=O)C(F)F)c1F [F104, N-(2-chloro-5-((1R,3R)-2,2-dichloro-3-(4-fluoro-3-(trifluoromethyl)phenyl)cyclopropane-1-carboxamido)phenyl)-3-(2,2-difluoroacetamido)-2,4-difluorobenzamide] | exhibited activity
14 | COCC(=O)Nc1c(F)ccc(C(=O)Nc2cc(NC(=O)[C@H]3[C@H](c4ccc(F)c(C(F)(F)F)c4)C3(Cl)Cl)ccc2Cl)c1F [F105, N-(2-chloro-5-((1R,3R)-2,2-dichloro-3-(4-fluoro-3-(trifluoromethyl)phenyl)cyclopropane-1-carboxamido)phenyl)-2,4-difluoro-3-(2-methoxyacetamido)benzamide] | exhibited activity
15 | O=C(Nc1cc(NC(=O)[C@@H]2[C@@H](c3ccc(F)c(C(F)(F)F)c3)C2(Cl)Cl)ccc1Cl)c1cnc(F)c(F)c1 [F110, N-(2-Chloro-5-((1S,3S)-2,2-dichloro-3-(4-fluoro-3-(trifluoromethyl)phenyl)cyclopropane-1-carboxamido)phenyl)-5,6-difluoronicotinamide] | exhibited activity

tested on: Yellow Fever Mosquito (Aedes aegypti, AEDSAE) larvae; experiment: Bioassay on yellow fever mosquito (YFM), 96-well plate larval assay; format: in vivo; conditions: 4000 ppm (master plate solution), about 1 day-old larvae, 3 days
Description: Example B: Bioassays on Yellow Fever Mosquito (Aedes aegypti, AEDSAE) (“YFM”)
Master plates containing 400 μg of a molecule dissolved in 100 μL of dimethyl sulfoxide (DMSO) (equivalent to a 4000 ppm solution) are used. A master plate of assembled molecules contains 15 μL per well. To this plate, 135 μL of a 90:10 water/acetone mixture is added to each well. A robot (Biomek® NXP Laboratory Automation Workstation) is programmed to dispense 15 μL aspirations from the master plate into an empty 96-well shallow plate (“daughter” plate). There are 6 reps (“daughter” plates) created per master. The created “daughter” plates are then immediately infested with YFM larvae.
The day before plates are to be treated, mosquito eggs are placed in Millipore water containing liver powder to begin hatching (4 g into 400 mL). After the “daughter” plates are created using the robot, they are infested with 220 μL of the liver powder/larval mosquito mixture (about 1 day-old larvae). After plates are infested with mosquito larvae, a non-evaporative lid is used to cover the plate to reduce drying. Plates are held at room temperature for 3 days prior to grading. After 3 days, each well is observed and scored based on mortality.

Row | Structure (SMILES) | activity against YFM (scored based on mortality)
16 | COCC(=O)Nc1cccc(NC(=O)[C@H]2[C@H](c3cc(Cl)cc(Cl)c3)C2(Cl)Cl)c1 (racemic) [F4, trans-rac-2,2-Dichloro-3-(3,5-dichlorophenyl)-N-(3-(2-methoxyacetamido)phenyl)cyclopropane-1-carboxamide] | exhibited activity
17 | O=C(Nc1cc(NC(=O)[C@H]2[C@H](c3cc(Cl)cc(Cl)c3)C2(Cl)Cl)ccc1Cl)c1ccccn1 (racemic) [F28, trans-rac-N-(2-chloro-5-(2,2-dichloro-3-(3,5-dichlorophenyl)cyclopropane-1-carboxamido)phenyl)picolinamide] | exhibited activity
18 | CCCC(=O)Nc1cc(NC(=O)[C@H]2[C@H](c3cc(Cl)cc(Cl)c3)C2(Cl)Cl)ccc1Cl (racemic) [F45, trans-rac-N-(3-Butyramido-4-chlorophenyl)-2,2-dichloro-3-(3,5-dichlorophenyl)cyclopropane-1-carboxamide] | exhibited activity
19 | O=C(CC1CC1)Nc1cccc(NC(=O)[C@H]2[C@H](c3cc(Cl)cc(Cl)c3)C2(Cl)Cl)c1F [F21, (1R,3R)-2,2-Dichloro-N-(3-(2-cyclopropylacetamido)-2-fluorophenyl)-3-(3,5-dichlorophenyl)cyclopropane-1-carboxamide] | exhibited activity

Reference: patent US20240343681A1, “MOLECULES HAVING PESTICIDAL UTILITY AND INTERMEDIATES AND PROCESSES RELATED THERETO” (priority 2021, published 2024)
